Consider 13 compounds from patent US9994617B2, “Modulation of structured polypeptide specificity” (BICYCLE THERAPEUTICS LIMITED, priority 2011, dated 2018).

The target in assay [1] is human plasma kallikrein (hPK) (Homo sapiens, UniProt P03952). The assay is described as follows: Enzyme inhibition assay, human plasma kallikrein.
The target in assay [2] is Human thrombin (Homo sapiens, UniProt P00734). The assay is described as follows: Inhibition of paralogous protease thrombin. It is filed as biochemical. How it is done:
(§1) The target specificity of the isolated bicyclic peptide inhibitors was assessed by determining the inhibition of trypsin-like human serine proteases of the class S1A which comprises 79 members (Yousef, et al, Biochem Biophys Res Commun 2003, 305 (1), 28-36). The panel of proteases included hfXIa which shares the highest sequence identity with hPK (69%) as well as the structurally less related but vital human serine proteases thrombin (36%), plasmin (34% sequence identity with hPK) and factor XIIa (35%).

The target in assay [3] is T1, Human factor XIIa (hfXIIa) (Homo sapiens, UniProt P00748).
T1 sequence (P00748 373-615 limits assumed): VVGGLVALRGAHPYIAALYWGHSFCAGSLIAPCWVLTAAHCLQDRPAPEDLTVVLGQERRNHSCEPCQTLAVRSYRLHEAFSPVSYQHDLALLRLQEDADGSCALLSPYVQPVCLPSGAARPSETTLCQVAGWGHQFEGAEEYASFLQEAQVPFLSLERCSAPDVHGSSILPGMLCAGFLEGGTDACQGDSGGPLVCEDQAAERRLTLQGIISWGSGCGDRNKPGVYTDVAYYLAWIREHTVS
The assay is described as follows: Inhibition of paralogous protease factor XIIa. The format is biochemical. How it is done: as §1

Numbered stars: 1 amine (or outer) side, 2 acyl side, 3 side chain; on linkers, the order of the positions; unused ones are H or OH. Bridge positions count the residues as written; N and C are the ends. Square brackets hold non-standard residues; d marks the D form. Peptide text beside a SMILES is read from it. TBMB = c1c(C[*:1])cc(C[*:3])cc1C[*:2]; NMeS = CN[C@@H](CO)C(=O)O

One may read the Ki as a dissociation constant, usually derived from enzyme kinetics or from competition with a known ligand. A high value points to weaker binding. As a reminder, the IC50 is the midpoint of a concentration-inhibition curve. As for `CC(C)[C@@H]1NC(=O)[C@H](CCCNC(=N)N)NC(=O)[C@@H]2CSCc3cc(cc(c3)CSC[C@@H](C(=O)N[C@@H](C)C(N)=O)NC(=O)[C@H](CC(N)=O)NC1=O)CSC[C@H](NC(=O)[C@H](C)N)C(=O)N[C@@H](Cc1ccccc1)C(=O)N[C@@H](CCCCN)C(=O)N[C@@H](CCC(N)=O)C(=O)N2` [Peptide 06-94] (H-ACFKQCRVNCA-NH2; linker 2-6-10 via TBMB), the Ki in assay [1] worked out at 0.0007 µM. In addition, the IC50 in assay [2] is greater than 10 µM.

On to `CC(C)C[C@@H]1NC(=O)[C@@H]2CSCc3cc(cc(c3)CSC[C@@H](C(=O)N[C@@H](C)C(N)=O)NC(=O)[C@H](Cc3ccc(O)cc3)NC(=O)[C@H](CC(=O)O)NC(=O)[C@H](CCC(N)=O)NC(=O)[C@H](Cc3c[nH]cn3)NC1=O)CSC[C@H](NC(=O)[C@H](C)N)C(=O)N[C@@H](CO)C(=O)N[C@@H](Cc1c[nH]c3ccccc13)C(=O)N1CCC[C@H]1C(=O)N[C@@H](Cc1ccc(O)cc1)C(=O)N[C@@H](CCCNC(=N)N)C(=O)N2` [Peptide 06-61] (H-ACSWPYRCLHQDYCA-NH2; linker 2-8-14 via TBMB), for which, in assay [1], the affinity corresponds to a Ki of 0.0058 µM. The IC50 in assay [3] and in assay [2] was greater than 10 µM each time.

As to `CC(C)C[C@@H]1NC(=O)[C@@H]2CSCc3cc(cc(c3)CSC[C@@H](C(=O)N[C@@H](C)C(N)=O)NC(=O)[C@H](CC(C)C)NC(=O)[C@H](CC(=O)O)NC(=O)[C@H]([C@@H](C)O)NC(=O)[C@H](Cc3c[nH]cn3)NC1=O)CSC[C@H](NC(=O)[C@H](C)N)C(=O)N[C@@H](CC(N)=O)C(=O)N[C@@H](Cc1c[nH]c3ccccc13)C(=O)N1CCC[C@H]1C(=O)N[C@@H](Cc1ccc(O)cc1)C(=O)N[C@@H](CCCNC(=N)N)C(=O)N2` [Peptide 06-157] (H-ACNWPYRCLHTDLCA-NH2; linker 2-8-14 via TBMB), the Ki in assay [1] stood at 0.0033 µM. Further, the IC50 in assay [3] and in assay [2] was greater than 10 µM each time.

Consider `CSCC[C@@H]1NC(=O)[C@H]([C@@H](C)O)NC(=O)[C@@H]2CSCc3cc(cc(c3)CSC[C@@H](C(=O)N[C@@H](C)C(N)=O)NC(=O)[C@H](Cc3c[nH]c4ccccc34)NC(=O)[C@H](CC(N)=O)NC(=O)[C@H](CCC(N)=O)NC1=O)CSC[C@H](NC(=O)[C@H](C)N)C(=O)N[C@@H]([C@@H](C)O)C(=O)N[C@@H](Cc1c[nH]c3ccccc13)C(=O)N1CCC[C@H]1C(=O)N[C@@H](C)C(=O)N[C@@H](CCCNC(=N)N)C(=O)N2` [06-A2*] (H-ACTWPARCTMQNWCA-NH2; linker 2-8-14 via TBMB), for which, in assay [1], affinity was put at a Ki of 0.181 µM. Moreover, the concentration for half-maximal inhibition (IC50) in assay [3] is greater than 10 µM.

Consider `CC(C)C[C@@H]1NC(=O)[C@H](CO)NC(=O)[C@H]([C@@H](C)O)NC(=O)[C@H]([C@@H](C)O)NC(=O)[C@H](CC(C)C)NC(=O)[C@@H]2CSCc3cc(cc(c3)CSC[C@@H](C(=O)N[C@@H](C)C(N)=O)NC1=O)CSC[C@H](NC(=O)[C@H](C)N)C(=O)N[C@@H](CCCNC(=N)N)C(=O)N[C@@H](Cc1c[nH]c3ccccc13)C(=O)N1CCC[C@H]1C(=O)N[C@@H](C)C(=O)N[C@@H](CCCNC(=N)N)C(=O)N2` [Peptide 06-59] (H-ACRWPARCLTTSLCA-NH2; linker 2-8-14 via TBMB), for which the affinity in assay [1] corresponds to a Ki of 0.0005 µM. Besides, the IC50 in assay [3] and in assay [2] was greater than 10 µM in each case.

Regarding `CC(C)[C@@H]1NC(=O)[C@H](CCCNC(=N)N)NC(=O)[C@@H]2CSCc3cc(cc(c3)CSC[C@@H](C(=O)N[C@@H](C)C(N)=O)NC(=O)[C@H](C)NC1=O)CSC[C@H](NC(=O)[C@H](C)N)C(=O)N[C@@H](Cc1ccccc1)C(=O)N[C@@H](CCCCN)C(=O)N[C@@H](Cc1c[nH]cn1)C(=O)N2` [Peptide 3B8] (H-ACFKHCRVACA-NH2; linker 2-6-10 via TBMB), the affinity in assay [1] corresponds to a Ki of 0.00095 µM. Moreover, the IC50 in assay [2] is greater than 10 µM.

Turning to `CC(=O)N[C@H]1CSCc2cc3cc(c2)CSC[C@H](NC(=O)[C@@H]2CCCN2C(=O)[C@H](CO)NC(=O)[C@H](CCCNC(=N)N)NC(=O)[C@H](C)NC(=O)[C@H](Cc2c[nH]c4ccccc24)NC1=O)C(=O)N[C@@H](CC(C)C)C(=O)N[C@@H](Cc1c[nH]cn1)C(=O)N[C@@H](CCC(N)=O)C(=O)N[C@@H](CC(=O)O)C(=O)N[C@@H](CC(C)C)C(=O)N[C@H](C(N)=O)CSC3` [Ac-(06-34-18) Scram4] (Ac-CWARSPCLHQDLC-NH2; linker 1-7-13 via TBMB), in assay [1], the inhibition constant Ki amounted to 67.5 µM.

Turning to `CC(=O)N[C@H]1CSCc2cc3cc(c2)CSC[C@H](NC(=O)[C@H](CCCNC(=N)N)NC(=O)[C@H](Cc2c[nH]c4ccccc24)NC(=O)[C@H](C)NC(=O)[C@H](CO)NC(=O)[C@@H]2CCCN2C1=O)C(=O)N[C@@H](CC(C)C)C(=O)N[C@@H](Cc1c[nH]cn1)C(=O)N[C@@H](CCC(N)=O)C(=O)N[C@@H](CC(=O)O)C(=O)N[C@@H](CC(C)C)C(=O)N[C@H](C(N)=O)CSC3` [Ac-(06-34-18) Scram1] (Ac-CPSAWRCLHQDLC-NH2; linker 1-7-13 via TBMB), in assay [1], the Ki came out at 1.09 µM.

`CC(C)C[C@@H]1NC(=O)[C@H](CCC(=O)O)NC(=O)[C@H](CCCNC(=N)N)NC(=O)[C@H]([C@@H](C)O)NC(=O)[C@H](CC(C)C)NC(=O)[C@@H]2CSCc3cc(cc(c3)CSC[C@@H](C(=O)N[C@@H](C)C(N)=O)NC1=O)CSC[C@H](NC(=O)[C@H](C)N)C(=O)N[C@@H](C)C(=O)N[C@@H](Cc1c[nH]c3ccccc13)C(=O)N1CCC[C@H]1C(=O)N[C@@H](C)C(=O)N[C@@H](CCCCN)C(=O)N2` [Peptide 1B1] (H-ACAWPAKCLTRELCA-NH2; linker 2-8-14 via TBMB): affinity in assay [1] was put at a Ki of 0.0081 µM.

`CC(=O)N[C@H]1CSCc2cc3cc(c2)CSC[C@H](NC(=O)[C@H](CCCNC(=N)N)NC(=O)[C@H](C)NC(=O)[C@@H]2CCCN2C(=O)[C@@H](Cc2c[nH]c4ccccc24)NC(=O)[C@H](CO)NC1=O)C(=O)N[C@@H](CC(C)C)C(=O)N[C@@H](Cc1c[nH]cn1)C(=O)N[C@@H](CCC(N)=O)C(=O)N[C@@H](CC(=O)O)C(=O)N[C@@H](CC(C)C)C(=O)N[C@H](C(N)=O)CSC3` [Ac-(06-34-18) D-Trp2] gave a Ki in assay [1] of 7.56 µM. In addition, the “fold reduction in affinity to kallikrein compared to wildtype peptide” value in assay [1] (versus Ac-06-34-18(TMB)-NH2) is listed as 45000 fold.

On to `CC(=O)N[C@H]1CSCc2cc3cc(c2)CSC[C@H](NC(=O)[C@H](CCCNC(=N)N)NC(=O)[C@H](C)NC(=O)[C@@H]2CCCN2C(=O)[C@H](Cc2c[nH]c4ccccc24)NC(=O)[C@H](CO)N(C)C1=O)C(=O)N[C@@H](CC(C)C)C(=O)N[C@@H](Cc1c[nH]cn1)C(=O)N[C@@H](CCC(N)=O)C(=O)N[C@@H](CC(=O)O)C(=O)N[C@@H](CC(C)C)C(=O)N[C@H](C(N)=O)CSC3` [Ac-(06-34-18) NMeSer1] (Ac-C[NMeS]WPARCLHQDLC-NH2; linker 1-7-13 via TBMB), for which, in assay [1], the affinity corresponds to a Ki of 0.0005 µM.

For `CC(C)[C@@H]1NC(=O)[C@H](CCCNC(=N)N)NC(=O)[C@@H]2CSCc3cc(cc(c3)CSC[C@@H](C(=O)N[C@@H](C)C(N)=O)NC(=O)[C@H](CC(N)=O)NC1=O)CSC[C@H](NC(=O)[C@H](C)N)C(=O)N[C@@H](Cc1ccccc1)C(=O)N[C@@H](Cc1ccc(O)cc1)C(=O)N[C@@H](CCCCN)C(=O)N2` [Peptide 06-71] (H-ACFYKCRVNCA-NH2; linker 2-6-10 via TBMB), in assay [1], the Ki is 0.0152 µM.

For `CC(C)[C@@H]1NC(=O)[C@H](CCCNC(=N)N)NC(=O)[C@@H]2CSCc3cc(cc(c3)CSC[C@@H](C(=O)N[C@@H](C)C(N)=O)NC(=O)[C@H](CC(N)=O)NC1=O)CSC[C@H](NC(=O)[C@H](C)N)C(=O)N[C@@H](Cc1ccccc1)C(=O)N[C@@H](CC(N)=O)C(=O)N[C@@H](CCCCN)C(=O)N2` [Peptide 06-64] (H-ACFNKCRVNCA-NH2; linker 2-6-10 via TBMB), the Ki in assay [1] is 0.0048 µM.
